Data published in US11673892B2, “Bicyclic compounds for use as RIP1 kinase inhibitors” (Genentech, Inc., priority 2017, dated 2023).

Target: T1, human RIP1 kinase domain (2-375) (Homo sapiens, UniProt Q13546)
T1 construct: Purified human RIP1 kinase domain (2-375) (50 nM); made in house; host or cells: baculovirus-infected insect cells
T1 sequence (Q13546 2-375): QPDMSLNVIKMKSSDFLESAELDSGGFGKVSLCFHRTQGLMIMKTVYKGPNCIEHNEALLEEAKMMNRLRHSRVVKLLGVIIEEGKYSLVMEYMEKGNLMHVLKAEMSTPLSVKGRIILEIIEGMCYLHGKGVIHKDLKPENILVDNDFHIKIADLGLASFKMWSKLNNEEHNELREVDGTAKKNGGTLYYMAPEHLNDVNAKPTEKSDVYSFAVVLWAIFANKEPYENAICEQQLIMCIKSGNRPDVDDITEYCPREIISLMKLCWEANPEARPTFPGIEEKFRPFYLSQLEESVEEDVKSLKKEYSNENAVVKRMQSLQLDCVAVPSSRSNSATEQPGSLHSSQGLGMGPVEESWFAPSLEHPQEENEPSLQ
Assay: RIP1 kinase inhibition biochemical assay (Transcreener ADP, fluorescence polarization)
Settings: Ki app (Morrison tight-binding fit); 50 nM enzyme, 50 uM ATP, 2 hours incubation
Experimental: RIP1 Kinase Inhibition Assays (Biochemical Assay)
The compounds of the present invention were tested for their capacity to inhibit RIP1K activity as described below.
The ability of the receptor interacting protein kinase (RIPK1) to catalyze the hydrolysis of adenosine-5′-triphosphate (ATP) is monitored using the Transcreener ADP (adenosine-5′-diphosphate) assay (BellBrook Labs). Purified human RIP1 kinase domain (2-375) (50 nM) derived from a baculovirus-infected insect cell expression system is incubated with test compounds for 2 hours in 50 mM Hepes buffer (pH 7.5) containing 30 mM MgCl2, 1 mM dithiothreitol, 50 uM ATP, 0.002% Brij-35, and 0.5% dimethyl sulfoxide (DMSO). Reactions are quenched by the addition of 1× Bell Brooks Stop buffer B (20 mM Hepes (ph7.5), 40 mM ethylenediaminetetraacetic acid and 0.02% Brij-35) containing an additional 12 mM EDTA and 55 ug/mL ADP2 antibody and 4 nM ADP-AlexaFluor® 633 tracer. The tracer bound to the antibody is displaced by the ADP generated during the RIP1K reaction, which causes a decrease in fluorescence polarization that is measured by laser excitation at 633 nm with a FP microplate reader M1000. Fractional activity was plotted against test article concentration. Using Genedata Screener software (Genedata; Basel, Switzerland), the data were fit to the tight-binding apparent inhibition constant (Ki^app) Morrison equation [Williams, J. W. and Morrison, J. F. (1979) The kinetics of reversible tight-binding inhibition. Methods Enzymol 63: 437-67]. The following equation was used to calculate fractional activity and Ki^app:
[formula] where [E]T and [I]T are the total concentrations of active enzyme and test article, respectively.
Exemplary compounds of the present invention are provided in Table 1 along with their physiochemical characterization and in vitro RIP1 kinase inhibitory activity data. “Method” in the first column of each table refers to the synthetic method(s) used to prepare each compound as shown in the Examples above. In certain examples, chiral column retention times (min) are provided for certain stereoisomers. Unless otherwise specified, the stereochemistry shown in each structure represents relative configuration of a single stereoisomer, and absolute configuration (i.e., “R” and/or “S”) is arbitrarily assigned. In some embodiments, where the Method is described to include the separation of stereoisomers, a single stereoisomer of a compound of Table 1 is provided.

First: F[C@H]1C[C@@H](c2ccccc2)n2nc(-n3ncc4ccccc43)nc21 (racemic) [Example 73, 1-[rac-(5S,7S)-7-fluoro-5-phenyl-6,7-dihydro-5H-pyrrolo[1,2-b][1,2,4]triazol-2-yl]indazole]
Second: F[C@H]1C[C@@H](c2ccccc2)n2nc(-n3ncc4ccncc43)nc21 (racemic) [Example 87, 1-[rac-(5S,7S)-7-fluoro-5-phenyl-6,7-dihydro-5H-pyrrolo[1,2-b][1,2,4]triazol-2-yl]pyrazolo[3,4-c]pyridine]
The Ki of the first is 26-fold lower: 6.2 nM for the first, 160 nM for the second.

First: CC(=O)c1cnn(-c2nc3n(n2)[C@H](c2ccccc2)C[C@@H]3F)c1 (racemic) [Example 78, 1-[1-[rac-(5S,7S)-7-fluoro-5-phenyl-6,7-dihydro-5H-pyrrolo[1,2-b][1,2,4]triazol-2-yl]pyrazol-4-yl]ethanone]
Second: Cc1cnn(-c2nc3n(n2)[C@H](c2ccccc2)C[C@@H]3F)c1 (single isomer, unassigned) [Example 25]
The Ki of the first is 7.6-fold higher: 130 nM for the first, 17 nM for the second. The second binds more tightly here.

First: F[C@H]1C[C@@H](c2ccccc2)n2nc(-n3nnc4cc(Cl)ccc43)nc21 (racemic) [Example 82, 5-chloro-1-[rac-(5S,7S)-7-fluoro-5-phenyl-6,7-dihydro-5H-pyrrolo[1,2-b][1,2,4]triazol-2-yl]benzotriazole]
Second: Cc1ccc2c(c1)nnn2-c1nc2n(n1)[C@H](c1ccccc1)C[C@@H]2F (racemic) [Example 88, 5-methyl-1-[rac-(5S,7S)-7-fluoro-5-phenyl-6,7-dihydro-5H-pyrrolo[1,2-b][1,2,4]triazol-2-yl]benzotriazole]
The Ki of the first is 4.9-fold lower: 9.2 nM for the first, 45 nM for the second.

Going from N#Cc1ccc2c(c1)nnn2-c1nc2n(n1)[C@H](c1ccccc1)C[C@@H]2F (racemic) [Example 85, 1-[rac-(5S,7S)-7-fluoro-5-phenyl-6,7-dihydro-5H-pyrrolo[1,2-b][1,2,4]triazol-2-yl]benzotriazole-5-carbonitrile] to N#Cc1cnn(-c2nc3n(n2)[C@H](c2ccccc2)C[C@@H]3F)c1 (single isomer, unassigned) [Example 54], the Ki rises from 19 nM to 41 nM (2.2-fold).

Compared with F[C@H]1C[C@@H](c2ccccc2)n2nc(-n3nnc4c3CCCC4)nc21 (racemic) [Example 86, 1-(rac-(5S,7S)-7-fluoro-5-phenyl-6,7-dihydro-5H-pyrrolo[1,2-b][1,2,4]triazol-2-yl]-4,5,6,7-tetrahydrobenzotriazole], Cc1ccnn1-c1nc2n(n1)[C@H](c1ccccc1)C[C@@H]2F (single isomer, unassigned) [Example 63] is 5.1-fold higher in Ki: 18 nM for the first, 92 nM for the second. The first binds more tightly here.

First: N#CCc1nc2n(n1)[C@H](c1ccccc1)C[C@@H]2F (racemic) [Example 102, 2-[rac-(5S,7S)-7-fluoro-5-phenyl-6,7-dihydro-5H-pyrrolo[1,2-b][1,2,4]triazol-2-yl]acetonitrile]
Second: N#CCCc1nc2n(n1)[C@H](c1ccccc1)C[C@@H]2F (single isomer, unassigned) [Example 22]
The Ki of the first is 66-fold higher: 730 nM for the first, 11 nM for the second. The second binds more tightly here.

Compared with CC(C)(C#N)c1nc2n(n1)[C@H](c1ccccc1)C[C@@H]2F (racemic) [Example 103, 2-[rac-(5S,7S)-7-fluoro-5-phenyl-6,7-dihydro-5H-pyrrolo[1,2-b][1,2,4]triazol-2-yl]-2-methyl-propanenitrile], CC[C@](C)(F)c1nc2n(n1)[C@H](c1ccccc1)C[C@@H]2F (single isomer, unassigned) [Example 27] is 6.7-fold lower in Ki: 220 nM for the first, 33 nM for the second. The second binds more tightly here.

Going from F[C@H]1C[C@@H](c2ccccc2)n2nc(C(F)(F)C3CC3)nc21 (single isomer, unassigned) [Example 13] to CC1(C(F)(F)c2nc3n(n2)[C@H](c2ccccc2)C[C@@H]3F)COC1 (single isomer, unassigned) [Example 17], the Ki rises from 3 nM to 34 nM (11-fold). The first binds more tightly here.

CCCc1nc2n(n1)[C@H](c1ccccc1)C[C@@H]2F (single isomer, unassigned) [Example 14] and FC(F)CCc1nc2n(n1)[C@H](c1ccccc1)C[C@@H]2F (single isomer, unassigned) [Example 29] are within 1.5-fold of each other in Ki: 28 nM for the first, 22 nM for the second.

Compared with F[C@@H]1C[C@H](c2ccccc2)n2nc(CCC(F)(F)F)nc21 (single isomer, unassigned) [Example 15], F[C@H]1C[C@@H](c2ccccc2)n2nc(CCC(F)(F)F)nc21 (single isomer, unassigned) [Example 18] is 92-fold lower in Ki: 1100 nM for the first, 12 nM for the second. The second binds more tightly here.

Cn1ccc(-c2nc3n(n2)[C@H](c2ccccc2)C[C@@H]3F)n1 (single isomer, unassigned) [Example 19] and Cn1ccnc1-c1nc2n(n1)[C@H](c1ccccc1)C[C@@H]2F (single isomer, unassigned) [Example 61] are within 1.5-fold of each other in Ki: 1100 nM for the first, 820 nM for the second.

CCCc1nc2n(n1)[C@H](c1ccccc1F)CC2 (single isomer, unassigned) [Example 26] and C=CCc1nc2n(n1)[C@H](c1ccccc1)C[C@@H]2F (single isomer, unassigned) [Example 52] are within 1.5-fold of each other in Ki: 114 nM for the first, 100 nM for the second.

First: F[C@H]1C[C@@H](c2ccccc2)n2nc(-n3cccn3)nc21 (single isomer, unassigned) [Example 31]
Second: F[C@H]1C[C@@H](c2ccccc2)n2nc(-n3ccnc3)nc21 (single isomer, unassigned) [Example 66]
The Ki of the first is 5.6-fold lower: 160 nM for the first, 890 nM for the second. The first binds more tightly here.

Compared with CC[C@@](C)(F)c1nc2n(n1)[C@H](c1ccccc1)C[C@@H]2F (single isomer, unassigned) [Example 32], C=Cc1nc2n(n1)[C@H](c1ccccc1)C[C@@H]2F (single isomer, unassigned) [Example 50] is 12-fold higher in Ki: 18 nM for the first, 220 nM for the second. The first binds more tightly here.

Compared with O[C@H](c1nc2n(n1)[C@H](c1ccccc1)C[C@@H]2F)C1CC1 (single isomer, unassigned) [Example 34], O[C@@H](c1nc2n(n1)[C@H](c1ccccc1)C[C@@H]2F)C1CC1 (single isomer, unassigned) [Example 35] is 11-fold lower in Ki: 904 nM for the first, 83 nM for the second.

First: CC(C)c1cnn(-c2nc3n(n2)[C@H](c2ccccc2)C[C@@H]3F)c1 (single isomer, unassigned) [Example 39]
Second: Fc1cnn(-c2nc3n(n2)[C@H](c2ccccc2)C[C@@H]3F)c1 (single isomer, unassigned) [Example 58]
The Ki of the first is 3.3-fold higher: 30 nM for the first, 9 nM for the second.

Going from F[C@H]1C[C@@H](c2ccccc2)n2nc(-n3cc(-c4ccncn4)cn3)nc21 (single isomer, unassigned) [Example 41] to COc1cnn(-c2nc3n(n2)[C@H](c2ccccc2)C[C@@H]3F)c1 (single isomer, unassigned) [Example 57], the Ki falls from 260 nM to 130 nM (2-fold). The second binds more tightly here.

First: F[C@H]1C[C@@H](c2ccccc2)n2nc([C@H](F)C34CC(C3)C4)nc21 (single isomer, unassigned) [Example 45]
Second: F[C@H](c1nc2n(n1)[C@H](c1ccccc1)C[C@@H]2F)C12CC(C1)C2 (single isomer, unassigned) [Example 46]
The Ki of the first is 3.7-fold lower: 230 nM for the first, 840 nM for the second.

Compared with N#CC1(Cc2nc3n(n2)[C@H](c2ccccc2)C[C@@H]3F)CC1 (single isomer, unassigned) [Example 47], N#Cc1ccn(-c2nc3n(n2)[C@H](c2ccccc2)C[C@@H]3F)n1 (single isomer, unassigned) [Example 53] is 2.9-fold higher in Ki: 95 nM for the first, 280 nM for the second.

Compared with Cn1cc(/C=C/c2nc3n(n2)[C@H](c2ccccc2)C[C@@H]3F)cn1 (single isomer, unassigned) [Example 49], CCc1cnn(-c2nc3n(n2)[C@H](c2ccccc2)C[C@@H]3F)c1 (single isomer, unassigned) [Example 59] is 110-fold lower in Ki: 1200 nM for the first, 11 nM for the second. The second binds more tightly here.

First: F[C@H]1C[C@@H](c2ccccc2)n2nc(-n3cc(C(F)(F)F)cn3)nc21 (single isomer, unassigned) [Example 56]
Second: F[C@H]1C[C@@H](c2ccccc2)n2nc(-n3ccc(C(F)(F)F)n3)nc21 (single isomer, unassigned) [Example 64]
The Ki of the first is lower: under 5 nM for the first, 610 nM for the second.

Going from F[C@H]1C[C@@H](c2ccccc2)n2nc(-n3cnc(C(F)(F)F)c3)nc21 (single isomer, unassigned) [Example 62] to Cc1nn(-c2nc3n(n2)[C@H](c2ccccc2)C[C@@H]3F)c(N)c1C#N (single isomer, unassigned) [Example 65], the Ki rises from 160 nM to 720 nM (4.5-fold). The first binds more tightly here.
